# Laboratory results published in paper PMC5515969, “Effects of 31 FDA approved small-molecule kinase inhibitors on isolated rat liver mitochondria” (Archives of Toxicology, 2016).
# Where two headings read alike, the source gives them in different places.
# Legend:
# [1] = tested on: RCC IV; assay: RCC IV activity in submitochondrial particles; assay type: biochemical, rat; parameters: key to RCC IV at 50XCmax / RCC IV at 100XCmax: activity relative to DMSO-treated controls (control set as 1 = 100%); settings: 50XCmax; relative to DMSO treated samples; in %
# Procedure, shortened: (§1)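 Rat submitochondrial particles (1 mg/ml) were treated with test compounds for 15 min. RCC IV, like RCC III, was monitored at 550 nm every 10 s for 2 min, and RCC I/V at 340 nm each minute for 6 min. DMSO samples defined unit activity.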
# [2] = tested on: isolated rat liver mitochondria; assay: Mitochondrial swelling (absorbance at 535 nm); assay type: biochemical; settings: difference in signal between KI and DMSO treated samples at the end of experiments; on Swelling 5XCmax: key: 0 indicates that the drug had no effects (negative)
# [3] = 1 = DILI positive, 0 = negative; ref product labeling; cited from earlier work
# [4] = tested on: RCC III; assay: RCC III activity in submitochondrial particles; assay type: biochemical, rat; parameters: key to RCC III at 100XCmax: activity relative to DMSO-treated controls (control set as 1 = 100%); settings: 100XCmax; relative to DMSO treated samples
# Procedure, shortened: as §1
# [5] = tested on: isolated rat liver mitochondria; assay: Mitochondrial inner membrane potential (MMP), Rhodamine 123; assay type: biochemical; settings: difference in signal between KI and DMSO treated samples at the end of experiments
# Source text: Fig. 3 KI effects on mitochondrial inner membrane potential (MMP). […] In a, c, data are means and standard derivations from three separate experiments. *p < 0.05 as compared to DMSO-treated samples at the end of experiments. In b, data are means of two independent experiments
# [6] = therapeutic maximal blood concentration, ref product labeling, cited from earlier work
# [7] = tested on: isolated rat liver mitochondria; assay: Mitochondrial oxygen consumption (glutamate/malate or succinate driven, state 4 and state 3); assay type: biochemical; settings: DMSO treated samples set as 1; on State 3 respiration driven by succinate at 10XCmax: key: 0 indicates that the drug had no effects (negative); on State 3 respiration driven by succinate at 1XCmax: key: 0 indicates that the drug had no effects (negative)
# Procedure, shortened: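 Oxygen uptake on glutamate/malate or on succinate defined state 4; ADP added 3 min later gave state 3. Mitochondria isolated from rat liver by differential centrifugation, adjusted to 1 mg/ml and pretreated 5 min with inhibitor (0.1% DMSO final). Values relative to DMSO control, set to 1.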
# [8] = tested on: isolated rat liver mitochondria; assay: Mitochondrial ROS production (CM-H2DCFDA); settings: DMSO treated samples set as 1
# [9] = tested on: isolated rat liver mitochondria; settings: positive control alamethicin treated samples
smiles,measurement,setting,value
Cc1nc(Nc2ncc(C(=O)Nc3c(C)cccc3Cl)s2)cc(N2CCN(CCO)CC2)n1 [dasatinib (free base)],RCC IV at 50XCmax,[1],0
same,Swelling 1XCmax,[2]; 1XCmax,0
same,Swelling 2.5XCmax,[2]; 2.5XCmax,0
same,Swelling 5XCmax,[2]; 5XCmax,0
same,Swelling 10XCmax,[2]; 10XCmax,0
same,Swelling 20XCmax,[2]; 20XCmax,0
same,Swelling 30XCmax,[2]; 30XCmax,0
same,Swelling 50XCmax,[2]; 50XCmax,0
same,Swelling 100XCmax,[2]; 100XCmax,0
same,DILI potential (based on labeling),[3],0
same,RCC III at 100XCmax,[4],0
same,MMP measured by Rhodamine 123 at 1XCmax,[5]; 1XCmax,0
same,MMP measured by Rhodamine 123 at 2.5XCmax,[5]; 2.5XCmax,0
same,MMP measured by Rhodamine 123 at 5XCmax,[5]; 5XCmax,0
same,MMP measured by Rhodamine 123 at 10XCmax,[5]; 10XCmax,0
same,MMP measured by Rhodamine 123 at 20XCmax,[5]; 20XCmax,0
same,MMP measured by Rhodamine 123 at 30XCmax,[5]; 30XCmax,0
same,MMP measured by Rhodamine 123 at 50XCmax,[5]; 50XCmax,0
same,MMP measured by Rhodamine 123 at 100XCmax,[5]; 100XCmax,0
same,Cmax,[6]; read-out: Cmax at µM,0.18 µM
same,Cmax,[6],85.8 ng/mL
same,State 3 respiration driven by glutamate/malate at 1XCmax,[7]; 1XCmax,0
same,State 3 respiration driven by succinate at 1XCmax,[7]; 1XCmax,0
same,State 4 respiration driven by glutamate/malate at 1XCmax,[7]; 1XCmax,0
same,State 4 respiration driven by succinate at 1XCmax,[7]; 1XCmax,0
same,State 3 respiration driven by glutamate/malate at 2.5XCmax,[7]; 2.5XCmax,0
same,State 3 respiration driven by succinate at 2.5XCmax,[7]; 2.5XCmax,0
same,State 4 respiration driven by glutamate/malate at 2.5XCmax,[7]; 2.5XCmax,0
same,State 4 respiration driven by succinate at 2.5XCmax,[7]; 2.5XCmax,0
same,State 3 respiration driven by glutamate/malate at 5XCmax,[7]; 5XCmax,0
same,State 3 respiration driven by succinate at 5XCmax,[7]; 5XCmax,0
same,State 4 respiration driven by glutamate/malate at 5XCmax,[7]; 5XCmax,0
same,State 4 respiration driven by succinate at 5XCmax,[7]; 5XCmax,0
same,State 3 respiration driven by glutamate/malate at 10XCmax,[7]; 10XCmax,0
same,State 3 respiration driven by succinate at 10XCmax,[7]; 10XCmax,0
same,State 4 respiration driven by glutamate/malate at 10XCmax,[7]; 10XCmax,0
same,State 4 respiration driven by succinate at 10XCmax,[7]; 10XCmax,0
same,State 3 respiration driven by glutamate/malate at 20XCmax,[7]; 20XCmax,0
same,State 3 respiration driven by succinate at 20XCmax,[7]; 20XCmax,0
same,State 4 respiration driven by glutamate/malate at 20XCmax,[7]; 20XCmax,0
same,State 4 respiration driven by succinate at 20XCmax,[7]; 20XCmax,0
same,State 3 respiration driven by glutamate/malate at 30XCmax,[7]; 30XCmax,0
same,State 3 respiration driven by succinate at 30XCmax,[7]; 30XCmax,0
same,State 4 respiration driven by glutamate/malate at 30XCmax,[7]; 30XCmax,0
same,State 4 respiration driven by succinate at 30XCmax,[7]; 30XCmax,0
same,State 3 respiration driven by glutamate/malate at 50XCmax,[7]; 50XCmax,0
same,State 3 respiration driven by succinate at 50XCmax,[7]; 50XCmax,0
same,State 4 respiration driven by glutamate/malate at 50XCmax,[7]; 50XCmax,0
same,State 4 respiration driven by succinate at 50XCmax,[7]; 50XCmax,0
same,State 3 respiration driven by glutamate/malate at 100XCmax,[7]; 100XCmax,0
same,State 3 respiration driven by succinate at 100XCmax,[7]; 100XCmax,0
same,State 4 respiration driven by glutamate/malate at 100XCmax,[7]; 100XCmax,0
same,State 4 respiration driven by succinate at 100XCmax,[7]; 100XCmax,0
same,ROS measured by CM-H2DCFDA at 1XCmax,[8]; 1XCmax,0
same,ROS measured by CM-H2DCFDA at 2.5XCmax,[8]; 2.5XCmax,0
same,ROS measured by CM-H2DCFDA at 5XCmax,[8]; 5XCmax,0
same,ROS measured by CM-H2DCFDA at 10XCmax,[8]; 10XCmax,0
same,ROS measured by CM-H2DCFDA at 20XCmax,[8]; 20XCmax,0
same,ROS measured by CM-H2DCFDA at 30XCmax,[8]; 30XCmax,0
same,ROS measured by CM-H2DCFDA at 50XCmax,[8]; 50XCmax,0
same,ROS measured by CM-H2DCFDA at 100XCmax,[8]; 100XCmax,0
same,Cytochrome c release 1XCmax,[9]; 1XCmax,0
same,Cytochrome c release 2.5XCmax,[9]; 2.5XCmax,0
same,Cytochrome c release 5XCmax,[9]; 5XCmax,0
same,Cytochrome c release 10XCmax,[9]; 10XCmax,0
same,Cytochrome c release 20XCmax,[9]; 20XCmax,0
same,Cytochrome c release 30XCmax,[9]; 30XCmax,0
same,Cytochrome c release 50XCmax,[9]; 50XCmax,0
same,Cytochrome c release 100XCmax,[9]; 100XCmax,0
